Assay results: US20180360898A1, “USE OF CRANBERRY DERIVED PHENOLIC COMPOUNDS AS ANTIBIOTIC SYNERGIZING AGENT AGAINST PATHOGENIC BACTERIA” (THE ROYAL INSTITUTION FOR THE ADVANCEMENT OF …, priority 2015, published 2018)

Key:
E. coli CFT073 = assay: Minimum Inhibitory Concentration (MIC); assay type: cell-based, Escherichia coli; conditions: alone, MHB-II broth
Description: (§1) Pure stock cultures were maintained at −80° C. in 30% (v/v) frozen glycerol solution. Starter cultures were prepared by streaking frozen cultures onto LB agar (LB broth: tryptone 10 g/L, yeast extract 5 g/L and NaCl 5 g/L, supplemented with 1.5 w/v % agar (Fisher Scientific, Canada)). After overnight incubation at 37° C., a single colony was inoculated into 10 mL of LB broth and the culture was incubated at 37° C. on an orbital shaker at 150 rpm for time lengths specific to each experiment. LB broth was used for bacterial culture in all experiments unless otherwise specified.
(§2) Minimum Inhibitory Concentration (MIC) was determined by preparing two-fold serial dilutions of each cPACs fraction and antibiotic in Mueller Hinton broth adjusted with Ca^2+ and Mg^2+ (MHB-II, Oxoid, Fisher Scientific, Canada). […] Bacterial growth was assessed by (i) monitoring the optical density of the cell suspension in each well at 600 nm (OD600 nm), and (ii) the resazurin microtitre plate assay. In the resazurin microtitre plate assay, each well of a microtitre plate was supplemented with 20 μM resazurin, incubated in dark for 20 min at room temperature, followed by fluorescence measurements at ex/em 570/590 nm using a TECAN Infinite M200 Pro microplate reader (Tecan Group Ltd., Switzerland). […]

P. aeruginosa PAO1 = assay: Minimum Inhibitory Concentration (MIC); assay type: cell-based, Pseudomonas aeruginosa; conditions: alone, MHB-II broth
Description: as §1, §2

gentamicin gave an MIC (E. coli CFT073) of 2 µg/mL and an MIC (P. aeruginosa PAO1) of 2 µg/mL.
